Experimental data from publication PMC4501499 (MedChemComm, 2015).

How the values were obtained:
[1] = in vitro microsomal stability with NADPH, LC/MS; settings: rat liver microsomes
UT-B = target: T1, UT-B (Rattus norvegicus, UniProt P97689); assay: UT-B inhibition assay; assay type: cell-based; settings: concentration-inhibition fit
T1 sequence (P97689 1-384): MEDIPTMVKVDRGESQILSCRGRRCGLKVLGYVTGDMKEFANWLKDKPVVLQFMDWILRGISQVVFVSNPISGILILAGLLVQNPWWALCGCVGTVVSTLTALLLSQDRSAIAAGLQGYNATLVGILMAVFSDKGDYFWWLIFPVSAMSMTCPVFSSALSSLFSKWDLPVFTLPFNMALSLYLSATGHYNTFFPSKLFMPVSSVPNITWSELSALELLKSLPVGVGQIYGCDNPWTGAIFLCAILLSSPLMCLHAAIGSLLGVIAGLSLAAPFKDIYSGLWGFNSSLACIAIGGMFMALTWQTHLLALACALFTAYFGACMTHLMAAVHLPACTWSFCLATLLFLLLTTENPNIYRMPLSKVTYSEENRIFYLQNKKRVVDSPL

rat UT-A1 = target: T2, rat UT-A1 (Rattus norvegicus, UniProt Q62668); assay: UT-A1 inhibition assay; assay type: cell-based; settings: for UT inhibition activity (in words): text summary of urea transport inhibition (UT-A1 / UT-B, Table 1)
T2 sequence (Q62668 1-929): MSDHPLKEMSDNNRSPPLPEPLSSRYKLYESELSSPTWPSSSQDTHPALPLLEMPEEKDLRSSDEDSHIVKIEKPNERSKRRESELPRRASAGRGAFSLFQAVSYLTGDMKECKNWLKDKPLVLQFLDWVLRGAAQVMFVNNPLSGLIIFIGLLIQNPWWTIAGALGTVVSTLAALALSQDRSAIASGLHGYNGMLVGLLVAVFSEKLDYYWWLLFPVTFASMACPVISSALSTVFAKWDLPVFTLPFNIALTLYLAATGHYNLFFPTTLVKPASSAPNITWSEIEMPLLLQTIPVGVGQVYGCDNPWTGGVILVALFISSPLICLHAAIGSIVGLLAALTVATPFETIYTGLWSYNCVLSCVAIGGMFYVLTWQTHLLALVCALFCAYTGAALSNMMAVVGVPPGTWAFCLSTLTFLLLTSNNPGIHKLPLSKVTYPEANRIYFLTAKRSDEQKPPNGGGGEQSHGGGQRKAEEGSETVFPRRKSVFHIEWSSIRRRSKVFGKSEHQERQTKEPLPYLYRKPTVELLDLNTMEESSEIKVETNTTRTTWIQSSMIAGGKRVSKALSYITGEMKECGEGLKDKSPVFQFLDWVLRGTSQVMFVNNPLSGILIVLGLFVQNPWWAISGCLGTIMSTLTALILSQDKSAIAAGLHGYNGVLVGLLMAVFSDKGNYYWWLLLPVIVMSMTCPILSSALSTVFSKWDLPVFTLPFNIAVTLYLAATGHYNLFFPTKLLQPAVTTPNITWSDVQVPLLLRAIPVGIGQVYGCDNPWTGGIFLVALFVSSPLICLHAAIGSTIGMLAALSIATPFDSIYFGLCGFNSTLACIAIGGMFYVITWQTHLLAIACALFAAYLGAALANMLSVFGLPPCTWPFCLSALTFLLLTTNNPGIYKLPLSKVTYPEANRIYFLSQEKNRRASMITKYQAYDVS

In the case of `CC(=O)Nc1ccc2c(c1)C(=O)c1cc(NC(C)=O)ccc1-2` [compound 3, 2,7-bisacetamido fluoren-9-one], the “[M+H-16] metabolite by LC/MS” value [1] is reported as “detected”, the “Hill coefficient, UT-B” value (UT-B) is reported as 1.1 and the “extent of UT-A1 inhibition at higher concentrations” value (rat UT-A1; higher concentrations) is reported as “complete inhibition”. For the same compound, the “reversibility of UT-A1 inhibition” value (rat UT-A1; incubation near IC50, then washing with PBS) was “complete reversibility”, the “time to complete inhibition of UT-A1” value (rat UT-A1; inhibition kinetics) was at most 40 s and the “Hill coefficient, UT-A1” value (rat UT-A1; rat UT-A1, concentration-inhibition fit) was 0.9. For the same compound, the “inhibition mechanism (urea competition)” value (rat UT-A1; urea 80 to 1,600 mM, apparent IC50 independent of urea concentration) was “non-competitive”.

In the case of `CS(=O)(=O)Nc1ccc2c(c1)C(=O)c1cc(NS(C)(=O)=O)ccc1-2` [compound 9], the “UT inhibition activity (in words)” value (rat UT-A1) is reported as “strong inhibition”.

For `CC(=O)Nc1cccc(C(=O)c2cccc(NC(C)=O)c2)c1` [compound 22], the “[M+H-16] metabolite by LC/MS” value [1] was “not detected”.

With `O=C1c2cc(NC(=O)C(F)(F)F)ccc2-c2ccc(NC(=O)C(F)(F)F)cc21` [compound 7] the “UT inhibition activity (in words)” value (rat UT-A1) was “much less active”.

With `CC(=O)Nc1ccc2c(c1)C(=NO)c1cc(NC(C)=O)ccc1-2` [compound 17] the “[M+H-16] metabolite by LC/MS” value [1] was “not detected”.

For `CS(=O)(=O)Nc1cccc(C(=O)c2cccc(NS(C)(=O)=O)c2)c1` [compound 24, bismethanesulfonamidobenzophenone], the “UT inhibition activity (in words)” value (rat UT-A1) was “inactive”.

With `O=C(CO)Nc1ccc2c(c1)C(=O)c1cc(NC(=O)CO)ccc1-2` [compound 12] the “UT inhibition activity (in words)” value (rat UT-A1) was “low activity”.
